The SangsterLogP compilation

Tests used:
[1] = not given; remark: listed apart in the source
[2] = method code SF-RC, from DOI: 10.1007/s00259-007-0645-5, PMID: 18057934; conditions: pH 7.4
[3] = method code SF, from DOI: 10.1016/s0223-5234(00)80025-2, PMID: 11278041; conditions: pH 7.4
[4] = method code SF, from DOI: 10.1016/j.ejps.2014.02.002, PMID: 24530864; conditions: pH 7.4
[5] = not given; remark: listed apart in the source
[6] = not given; remark: listed apart in the source
[7] = method code SF-RC, from DOI: 10.1267/nukl06010041, PMID: 16493513; conditions: pH 7.4
[8] = not given; remark: listed apart in the source
[9] = method code SF-AS, from DOI: 10.1021/es00127a005
[10] = method code SF-AS, from DOI: 10.3390/molecules16097565, PMID: 21894089
[11] = not given; remark: listed apart in the source
[12] = method code SF-HPLC, from DOI: 10.1021/jm1007903, PMID: 20828199; conditions: pH 7.4
[13] = method code SF-RC, from DOI: 10.1515/ract-2013-2119
[14] = method code SF-RC, from DOI: 10.1021/es60172a005, PMID: 22280000
[15] = method code SF, from DOI: 10.1021/acs.jmedchem.6b00554, PMID: 27500461; conditions: pH 7.4
[16] = method code SF-AS, from DOI: 10.1016/0048-3575(89)90091-6
[17] = method code SF-HPLC, from DOI: 10.1016/j.bmc.2009.06.014, PMID: 19586774; conditions: pH 7.4
[18] = not given; remark: listed apart in the source
[19] = not given; remark: listed apart in the source
[20] = method code SF, from DOI: 10.1021/jm00123a006, PMID: 2918500; conditions: pH 7.4
[21] = not given; remark: listed apart in the source
[22] = method code SF-RC, from DOI: 10.1016/j.mibio.2003.09.009; conditions: pH 7.4
[23] = method code SF-HPLC, from DOI: 10.1021/js950346l, PMID: 9109056
[24] = not given; remark: listed apart in the source
[25] = method code SF, from DOI: 10.1016/s0969-8051(99)00063-3, PMID: 10628565; conditions: pH 7.4
[26] = method code SF, from Zhang, Y. (2010). Determination and Correlation of 1-Octanol/Water Partition Coefficients for Six Quinolones from 293.15 K to 323.15 K. Chemical Research in Chinese Universities, 26(4)636-639.
[27] = not given; remark: listed apart in the source
[28] = method code SF-HPLC, from DOI: 10.1016/0378-5173(94)90060-4; conditions: pH 5.0
[29] = method code SF-AS, from PMID: 7306420; conditions: pH 7.5
[30] = not given; remark: listed apart in the source
[31] = method code SF-HPLC, from Gao, X.; Yu, Y.; Wang, Y.; Pi, J.; Zhang, W.; Xiao, X. (2013). Determination of equilibrium solubility and apparent partition coefficient of bakuchiol. West China Journal of Pharmaceutical Sciences, …
[32] = not given; remark: listed apart in the source
[33] = not given; remark: listed apart in the source
[34] = method code SF-RC, from DOI: 10.1016/j.nucmedbio.2007.04.005, PMID: 17591554; conditions: pH 7.4
[35] = method code SF-AS, from DOI: 10.1111/j.2042-7158.1989.tb06480.x, PMID: 2570831; conditions: pH 7.4
[36] = not given; remark: listed apart in the source
[37] = not given; remark: listed apart in the source
[38] = method code SF, from DOI: 10.1016/0223-5234(96)89550-x
[39] = method code SF-AS, from Sengupta, C.; Mondal, K. (1986). Partition coefficients of some anticoagulants and coagulants in relation to their biological activity. Indian J Pharm Sci, 48(2)51-52.
[40] = method code SF, from DOI: 10.1021/jm9018146, PMID: 20232803; conditions: pH 7.4
[41] = method code SF-AS, from PMID: 582102; conditions: pH 3.0
[42] = method code SF, from DOI: 10.1097/00004424-199009001-00048; conditions: pH 7.4
[43] = not given; remark: listed apart in the source
[44] = not given; remark: listed apart in the source
[45] = method code SF-HPLC, from DOI: 10.1016/j.bmc.2015.09.009, PMID: 26385444

O=C1/C(=C/c2ccccc2F)CCCc2ccccc21
logP: 4.55

CCCCCCCCCCOc1ccc(C(=O)O)cc1
logP [1]: 5.77

CCN(CC)C(=O)Cc1c(-c2ccc(I)cc2)nc2ccc(Cl)cn12
logD [2]: 3.1

CC(C)Cc1ccc(C(C)C(=O)OCN2C(=O)CCC2=O)cc1 (stereo unspecified)
logD [3]: 2.62

Cc1ncc2n1-c1ccc(Cl)cc1C(c1ccccc1F)=NC2
logD [4]: 3

CCN(CC)CCN1c2ccccc2Sc2ccccc21
logP [5]: 5.94

CCCCCCCCCCCC(=O)N1CCCCCC1
logP [6]: 7.3

Clc1ccc(N2CCN(Cc3cnn4c(I)cccc34)CC2)cc1
logD [7]: 2.36

C[C@]12CCC(=O)C[C@@H]1CC[C@@H]1[C@@H]2[C@@H](F)C[C@]2(C)[C@@H](O)CC[C@@H]12
logP [8]: 3.5

Oc1ccc(C(c2ccccc2)c2ccc(O)cc2)cc1
logP [9]: 4.3

C[C@H](c1nc2ccc(F)cc2s1)N1C(=O)C(=O)N(c2ccccc2)C1=O
logP [10]: 1.51

COc1ccc(N2CCn3c(nc4ccccc4c3=O)C2C)cc1 (stereo unspecified)
logP [11]: 1.29

CCCCCCCc1c(C)[nH]c2cc(OC)c(Cl)cc2c1=O
logD [12]: 3.83

Fc1ccc(CN2CCN(Cc3cnn4ccccc34)CC2)cc1
logP [13]: 2.8

c1ccc2nc(-c3ccc4ccccc4n3)ccc2c1
logP [14]: 4.31

Cc1sc(=NC(=O)C2C(C)(C)C2(C)C)n(CCCCF)c1C
logD [15]: 3.22

CC1(C)C(C=C2CCSC2=O)C1C(=O)OCc1ccccc1 (stereo unspecified)
logP [16]: 4.02

CCc1cc(Cl)cc2[nH]c(=O)c(-c3cccc(NC)c3)c(O)c12
logD [17]: 1.92

O=S(c1ccc(F)cc1)C1CCN(CCc2ccc(F)cc2F)CC1 (stereo unspecified)
logP [18]: 2.67

CC(=O)Oc1c(C)cc(OCC(O)CNC(C)C)c(C)c1C (stereo unspecified)
logP [19]: 1.95

Nc1ccc(CCN2CCN(c3cccc(C(F)(F)F)c3)CC2)cc1I
logD [20]: 3.69

c1ccc(Oc2ccccc2-c2ccccc2)cc1
logP [21]: 5.66

CN1CCc2cc(Cl)c(O)cc2C(c2cccc3ccoc23)C1 (stereo unspecified)
logD [22]: 3

COc1ccc2c(c1)c(CC(=O)O)c(C)n2C(=O)c1ccc(Cl)cc1
logP [23]: 3.86

COc1ccc(C2=CC(c3ccc(S(C)(=O)=O)cc3)C=NC2=O)cn1 (stereo unspecified)
logP [24]: 1.7

CC(=O)OCC1C(OC(C)=O)C(OC(C)=O)C(OC(C)=O)CN1CCCI (stereo unspecified)
logD [25]: 1.76

CC1COc2c(N3CCN(C)CC3)c(F)cc3c(=O)c(C(=O)O)cn1c23 (stereo unspecified)
logP [26]: -0.05

CCN1CCc2cc(S(=O)(=O)Nc3ccc(F)cc3F)cc(NC(C)=O)c21
logP [27]: 1.4

COC(=O)Nc1nc2cc(C(=O)c3ccccc3)ccc2n1C(=O)OC
logD [28]: 2.47

C#CCN1C(=O)CN=C(c2ccccc2)c2cc(Cl)ccc21
logD [29]: 2.87

CN(C)CCc1c[nH]c2ccc(CS(=O)(=O)N3CCCC3)cc12
logP [30]: 1.6

C=C[C@@](C)(/C=C/c1ccc(O)cc1)CCC=C(C)C
logP [31]: 4.27

CCC(C)(CC)c1cc(NC(=O)c2c(OC)cccc2OC)on1
logP [32]: 3

O=C(NC12CC3CC(CC(C3)C1)C2)C(O)c1ccccc1 (stereo unspecified)
logP [33]: 3.09

COc1ccc(/C=C2\CCCN=C2c2cccnc2)c(OC)c1
logD [34]: 2.82

Nc1ncnc2c1ncn2C(c1ccccc1)c1ccccc1
logD [35]: 3.19

CC[C@H](Oc1ccccc1)C(=O)N[C@@H]1C(=O)N2[C@@H]1SC(C)(C)[C@@H]2C(=O)O
logP [36]: 2.58

CCC(c1ccc(O)cc1)C(C(C)=O)c1ccc(O)cc1 (stereo unspecified)
logP [37]: 3.1

O=C(Nc1ccn(C2CSC(CO)O2)c(=O)n1)c1cnc2ccccc2c1 (stereo unspecified)
logP [38]: 0.87

CC(=O)CC(c1ccc([N+](=O)[O-])cc1)c1c(O)c2ccccc2oc1=O (stereo unspecified)
logP [39]: 1.98

CCOC(=O)[C@@]1(C)CSC(c2ccc(OCCOCCOC)cc2O)=N1
logD [40]: 3

COc1ccc(N(CCCC(=O)O)C(=O)c2ccc(Cl)cc2)cc1
logD [41]: 2.7

O=C(NCC(O)CO)c1c(I)c(C(=O)NCC(O)CO)c(I)c(N(CCO)C(=O)CO)c1I (stereo unspecified)
logD [42]: -2.98

CN(C)CC/C=C1/c2ccccc2Sc2ccc(Cl)cc21
logP [43]: 5.18

O=S1(=O)OC(c2ccc(O)cc2)(c2ccc(O)cc2)c2ccccc21
logP [44]: 3.02

CC1=C(C(=O)Nc2nc3ccccc3s2)C(c2ccccc2)NC(=S)N1 (stereo unspecified)
logP [45]: 2.03
